Values of other authors, collected in US9884842B2, “Combretastatin analogs” (The Board of Trustees of the University of Arkansas, priority 2013, dated 2018).

Assays:
Conditions in all cases: background; cited from earlier work
[1] = test system: multidrug resistant (MDR) cancer cell lines
[2] = test system: tubulin
[3] = test system: tubulin; remark: listed apart in the source

In the case of COc1ccc(/C=C\c2cc(OC)c(OC)c(OC)c2)cc1O [combretastatin A-4], the “activity against multidrug resistant (MDR) cancer cell lines” value [1] is given as “active”, the “inhibition of binding of radiolabeled colchicines to tubulin” value [2] is given as “competitively inhibit the binding of radiolabeled colchicines to tubulin” and the “inhibition of tubulin polymerization” value [3] is given as “inhibit tubulin polymerization”.
